Source: patent EP0721774A2, “Anti-microbial compositions” (UNILEVER N.V., priority 1994, dated 1996)

Legend:
S.sanguis = test: Minimum inhibitory concentration (MIC), spot dilution on lawned SDM agar plates; format: cell-based, Streptococcus sanguis
Description: (§1) The minimum inhibitory concentrations (MICs) of these peptides were determined as follows: Organisms were subcultured from BHIS agar into BHI broth and incubated at 37°C for 2 days. They were then diluted 1/100 in fresh broth and flooded onto pre-dried SDM agar plates. Excess culture was removed by pipetting. Plates were then allowed to dry at room temperature. The various synthesised peptides were dissolved in sterile water at a concentration of 1 %. Doubling dilutions, in water, were carried out down to 0.03 %. 15 µl of each dilution was spotted onto the lawned cultures, allowed to dry and then the plates were incubated at 37°C for 2 days. Plates were then read for zones of inhibition. The MIC was taken as the lowest dilution still causing visible growth inhibition.
(§2) All organisms were routinely grown on supplemented Brain Heart Infusion agar (Difco) and when appropriate subcultured into Brain Hearth Infusion broth (Difco). For MIC assays a chemically defined solid medium (SDM) was used^(5).
Streptococcus sanguis strains were all clinical isolates from the plaque of panellists in ongoing oral ecology studies.

Candida = test: as above; format: cell-based
Description: as §1, §2
Candida strains 83 and 41 were isolated from oral ecology studies.

Lactobacilli = test: as above; format: cell-based
Description: as §1, §2
Lactobacilli were from the in house Colworth Microbial Culture Collection. SB115 and SB116 were L.casei var. rhamnosus, SB82 had been classified as L.plantarum, SB83 and SB85 were Lactobacillus sp. and SB 9 was L.casei.

Actinomyces = test: as above; format: cell-based
Description: as §1, §2
Actinomyces 12/2, 69A and 41A were plaque isolates from oral ecology studies.

C. albicans = conditions: compared among histatins -1, -3 and -5; cited from earlier work
S.salivarius = test: Minimum inhibitory concentration (MIC), spot dilution on lawned SDM agar plates; format: cell-based, Steptococcus salivarius
Description: as §1, §2
Steptococcus salivarius strans were all wild plaque isolates from oral ecology studies.

S.mutans = test: as above; format: cell-based, Streptococcus mutans
Description: as §1, §2
The organisms used were the following: Streptococcus mutans strains were clinical isolates, from the plaque of panellists in oral ecology studies. […] SM11060 belonged to serotype f and SM10919 belonged to serotype g. Strain SMB13 (serotype d) was supplied by PHLS, Porton Down.

Question: With Histatin-5 as the substance, how does the MIC (S.sanguis; strain 6/9) read?
Answer: growth stimulated

Question: What about the MIC (S.sanguis; strain 10/23) of the same substance?
Answer: growth stimulated

Question: What about the MIC (S.sanguis; strain SS209) of the same substance?
Answer: growth stimulated

Question: And the MIC (Candida; strain 41)?
Answer: >1.0%

Question: And the MIC (Candida; strain 83)?
Answer: >1.0%

Question: And the MIC (Lactobacilli; strain SB9 (L.casei))?
Answer: 1.0%

Question: And the MIC (Lactobacilli; strain SB81)?
Answer: 0.125%

Question: And the MIC (Lactobacilli; strain SB82 (L.plantarum))?
Answer: 0.125%

Question: And the MIC (Lactobacilli; strain SB116 (L.casei var. rhamnosus))?
Answer: 1.5%

Question: And the MIC (Actinomyces; strain 10A)?
Answer: 1.0%

Question: And the MIC (Actinomyces; strain 11A)?
Answer: 0.5%

Question: And the MIC (Actinomyces; strain 16A)?
Answer: growth stimulated

Question: What about the MIC (Actinomyces; strain 41A) of the same substance?
Answer: 1.0%

Question: What about the MIC (Actinomyces; strain 69A) of the same substance?
Answer: growth stimulated

Question: And the MIC (Actinomyces; strain 71A)?
Answer: 0.5%

Question: What about the “ability to kill the pathogenic yeast C. albicans” value (C. albicans) of the same substance?
Answer: most effective

Question: And the MIC (S.salivarius; strain 2/7)?
Answer: growth stimulated

Question: What about the MIC (S.salivarius; strain 2/27) of the same substance?
Answer: growth stimulated

Question: And the MIC (S.salivarius; strain 14/9)?
Answer: growth stimulated

Question: And the MIC (S.mutans; strain SM1dg)?
Answer: 1.0%

Question: And the MIC (S.mutans; strain SM24dg)?
Answer: 1.0%

Question: What about the MIC (S.mutans; strain SM28B) of the same substance?
Answer: 1.0%

Question: What about the MIC (S.mutans; strain SM44A) of the same substance?
Answer: 0.5%

Question: What about the MIC (S.mutans; strain SM84C) of the same substance?
Answer: 1.0%

Question: What about the MIC (S.mutans; strain SM148dg) of the same substance?
Answer: 0.5%

Question: What about the MIC (S.mutans; strain SM189) of the same substance?
Answer: 0.5%

Question: What about the MIC (S.mutans; strain SM211) of the same substance?
Answer: 0.25%

Question: What about the MIC (S.mutans; strain SM6715) of the same substance?
Answer: 0.5%

Question: And the MIC (S.mutans; strain SM10449)?
Answer: 0.25%

Question: What about the MIC (S.mutans; strain SMNW1) of the same substance?
Answer: 1.0%

Question: What about the MIC (S.mutans; strain SMNW6) of the same substance?
Answer: 1.0%

Question: What about the MIC (S.mutans; strain SMNW10) of the same substance?
Answer: 0.5%
